From paper PMC6546852, “Carbonyl Reduction of Flubendazole in the Human Liver: Strict Stereospecificity, Sex Difference, Low Risk of Drug Interactions” (Frontiers in Pharmacology, 2019)

What was measured:
[1] = biological target: T1, carbonyl reductase 1 (CBR1) (Homo sapiens, UniProt P16152); experiment: Inhibition of flubendazole reduction in pooled human liver cytosol by CBR1 inhibitors; format: biochemical; conditions: 10 µM FLU, NADPH, inhibitor 0-50 µM
T1 sequence (P16152 2-277 limits assumed): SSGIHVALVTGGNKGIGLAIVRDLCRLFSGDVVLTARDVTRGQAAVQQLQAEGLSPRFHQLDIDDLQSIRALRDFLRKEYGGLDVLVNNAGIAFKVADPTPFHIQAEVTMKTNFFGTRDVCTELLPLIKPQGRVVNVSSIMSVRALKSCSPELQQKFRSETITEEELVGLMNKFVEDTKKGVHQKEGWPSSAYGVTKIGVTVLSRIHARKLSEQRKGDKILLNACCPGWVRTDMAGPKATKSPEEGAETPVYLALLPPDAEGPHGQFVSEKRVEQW

[2] = biological target: T2, human recombinant CBR1 (Homo sapiens, UniProt P16152); experiment: Specific activity of human recombinant CBR1 toward substrates (NADPH consumption at 340 nm); format: biochemical; conditions: 10 µM substrate
T2 construct: purchased MyBioSource (San Diego, CA, USA)
T2 sequence (P16152 1-277): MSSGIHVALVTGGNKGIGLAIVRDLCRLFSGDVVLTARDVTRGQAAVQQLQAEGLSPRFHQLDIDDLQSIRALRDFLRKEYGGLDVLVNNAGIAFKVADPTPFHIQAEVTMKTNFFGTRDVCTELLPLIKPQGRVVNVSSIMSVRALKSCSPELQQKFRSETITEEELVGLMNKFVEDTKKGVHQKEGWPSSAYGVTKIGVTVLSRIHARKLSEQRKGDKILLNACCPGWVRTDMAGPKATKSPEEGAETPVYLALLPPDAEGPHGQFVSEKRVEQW
Procedure: The human recombinant CBR1 activity was assayed using a slight modification of previously published method (Mate et al., [2008]). The assay was performed in four replicates and was repeated three times. […] The activity of CBR1 was assessed using 10-μM concentration of the substrates, MEN, DOX, and FLU. The consumption of NADPH in the reaction mixture, which served for the assessment of the reductase activity, was determined spectrophotometrically at 340 nm at 37°C using the microplate reader Tecan Infinite M200.

[3] = system: doxorubicin reduction in cytosol of cancer cells SW480; experiment: Flubendazole effect on doxorubicin reduction (doxorubicinol formation) in cytosol of cancer cells SW480; format: biochemical, human; conditions: for Doxorubicinol—SW480 (percent of the residual activity): 20 µM doxorubicin, NADPH
[4] = system: doxorubicin reduction in pooled human liver cytosol; experiment: Flubendazole effect on doxorubicin reduction (doxorubicinol formation) in pooled human liver cytosol; format: biochemical; conditions: for Doxorubicinol—cytosol (percent of the residual activity): 20 µM doxorubicin, NADPH
[5] = Kinetics of flubendazole reduction ((+)-FLUR formation) in pooled human liver cytosol; format: in vitro ADME; conditions: for Clint (intrinsic clearance, V′max/K′m) / K’m (apparent Michaelis constant) / V’max (apparent maximal velocity of (+)-FLUR formation): pooled cytosol; for V’max (apparent maximal velocity of (+)-FLUR formation): 0-10 µM FLU
[6] = system: P-glycoprotein; parameters: method as in earlier work; conditions: ref Spagnuolo et al., 2010, Kralova et al., 2013, Michaelis et al., 2015, 2016; cited from earlier work
[7] = Water solubility of flubendazole; format: physicochemical; conditions: allowed only 10 µM as highest concentration in incubation mixtures
[8] = Reduction of flubendazole in pooled human liver cytosol (chiral HPLC of FLUR enantiomers); format: in vitro ADME; conditions: human liver subcellular fractions
Procedure: Frozen pieces of liver were thawed at room temperature for up to 15 min and individual livers were homogenized in a 0.1 M sodium phosphate buffer, pH 7.4 at the ratio of 1:6 (v/v), using a Potter-Elvehjem homogenizer and sonication with Sonopolus (Bandelin, Germany). The suspension of the SW480 cells was homogenized using sonication only. The subcellular fractions were isolated by differential centrifugation of the homogenates (Gillette, [1971]) and stored at −80°C. Protein concentrations were assayed using the bicinchoninic acid (BCA) assay according to the manufacturer’s instructions (Sigma-Aldrich).
The cytosolic or microsomal fraction was incubated with FLU (10 μM). […]
Details concerning the HPLC analyses including validations were described in Nobilis et al. ([2008]). A chiral HPLC analysis was employed for the determination of reduced FLU (FLUR) enantiomers—(+)-FLUR and (−)-FLUR; concentrations of FLU, (+)-FLUR, and (−)-FLUR in the samples were determined using an internal standard method (I.S., albendazole). […] A tandem of an UV photodiode-array and a fluorescence detector was used for the determination of the abovementioned benzimidazole compounds.

SMILES | IC50 [1] | Specific activity of human recombinant CBR1 toward the substrate (in words) [2] | Doxorubicinol—SW480 (percent of the residual activity) ([3]; 2 µM flubendazole) | Doxorubicinol—SW480 (percent of the residual activity) ([3]; 10 µM flubendazole) | Inhibition of DOX reduction (in words) ([3]; SW480 cytosol, FLU 2 and 10 µM) | Doxorubicinol—cytosol (percent of the residual activity) ([4]; 2 µM flubendazole) | Doxorubicinol—cytosol (percent of the residual activity) ([4]; 10 µM flubendazole) | Inhibition of DOX reduction (in words) ([4]; human liver cytosol, FLU 2 and 10 µM) | Clint (intrinsic clearance, V′max/K′m) ([5]; NADH coenzyme) | K’m (apparent Michaelis constant) ([5]; NADH coenzyme) | V’max (apparent maximal velocity of (+)-FLUR formation) ([5]; NADH coenzyme) | Clint (intrinsic clearance, V′max/K′m) ([5]; NADPH coenzyme) | K’m (apparent Michaelis constant) ([5]; NADPH coenzyme) | V’max (apparent maximal velocity of (+)-FLUR formation) ([5]; NADPH coenzyme) | Hepatic intrinsic clearance (in words) ([5]; pooled human liver cytosol) | P-glycoprotein substrate (in words) [6] | Water solubility (in words) [7] | Stereospecificity of carbonyl reduction (in words) [8]
O=c1cc(-c2ccc(O)c(O)c2)oc2cc(O)cc(O)c12 [LUT, luteolin] | 8.21 ± 3.71 µM | – | – | – | – | – | – | – | – | – | – | – | – | – | – | – | – | –
CC1=CC(=O)c2ccccc2C1=O [MEN, menadione] | 0.34 ± 0.26 µM | highest | – | – | – | – | – | – | – | – | – | – | – | – | – | – | – | –
COC(=O)Nc1nc2cc(C(=O)c3ccc(F)cc3)ccc2[nH]1 [flubendazole, [5-(4-fluorobenzoyl)-1H-benzimidazol-2-yl]-carbamic acid methyl ester] | – | significantly lower than to MEN | 97.6 ± 3.4% | 96.7 ± 2.7% | did not inhibit | 98.0 ± 3.4% | 91.4 ± 4.9% | did not inhibit | 0.000012 min⁻¹ | 13.34 ± 3.07 µM | 0.161 ± 0.024 nM/min | 0.000023 min⁻¹ | 19.91 ± 2.49 µM | 0.466 ± 0.043 nM/min | very low | not a substrate for P-glycoprotein | poor | strictly stereospecific
